Results reported in patent US8623862B2, “Derivatives of N-[(1H-pyrazol-1-yl)aryl]-1H-indole or 1H-indazole-3-carboxamide, preparation thereof and applications thereof in therapeutics” (Sanofi, priority 2011, dated 2014).
Where a name gives a salt, the structure may show the parent alone.

What follows are compounds tested on platelet aggregation (assay: Inhibition of platelet aggregation in vitro (rat blood)). Settings: 0.1 h; rat platelet-rich plasma, ADP-induced aggregation, area under the curve of absorbance for 6 minutes; read-out: Inhibition of platelet aggregation in vitro (rat blood).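 Note: aggregation induced by ADP added as 4 µL of a 250 µM solution.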
Assay type: cell-based
Description: The measurements of platelet aggregation are performed at 37° C. in glass tubes (Chrono-Log—Kordia aggregometer).
Inhibition of Platelet Aggregation In Vitro (Rat Blood)
The blood is taken from male rats of the Sprague-Dawley strain, weighing 250-300 g.
The platelet-rich plasma (PRP) is obtained by centrifugation of the blood at 300 g for 5 minutes, and the measurements of platelet aggregation are performed as described above.
The results are calculated using the area under the curve of absorbance measured for 6 minutes, and expressed as percentage inhibition.

Structure (SMILES)	IC50 [nM]
CCCC(=O)c1cnn(-c2ccc(NC(=O)c3cn(CC(=O)N4CCNC(C)C4)c4ccc(C)cc34)cc2)c1C (centres unmarked) [Compound 242, N-[4-(4-Butyryl-5-methyl-1H-pyrazol-1-yl)phenyl]-5-methyl-1-[2-(3-methylpiperazin-1-yl)-2-oxoethyl]-1H-indole-3-carboxamide hydrochloride]	510

Same assay, conditions: rat blood, in vitro; read-out: Inhibition of platelet aggregation in vitro (rat blood);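 note: aggregation induced by ADP added as 4 µL of a 250 µM solution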

IC50 [nM]	Structure (SMILES)
100	CCCC(=O)c1cnn(-c2ccc(NC(=O)c3cn(CC(=O)N4CCN(CCO)CC4)c4ccc(Cl)cc34)cc2)c1C [Compound 146]
150	CCCC(=O)c1cnn(-c2ccc(NC(=O)c3cn(CC(=O)N4CCN(CCS(C)(=O)=O)CC4)c4ccc(Cl)cc34)cc2)c1C [Compound 148]
410	CCCC(=O)c1cnn(-c2ccc(NC(=O)c3cn(CC(=O)N4CCC(N5CCOCC5)CC4)c4ccc(Cl)cc34)cc2)c1C [Compound 149]
240	CCCC(=O)c1cnn(-c2ccc(NC(=O)c3cn(CC(=O)N4CCN(CCN(C)C)CC4)c4ccc(Cl)cc34)cc2)c1C [Compound 150]
250	CCCCN1CCN(C(=O)Cn2cc(C(=O)Nc3ccc(-n4ncc(C(=O)CCC)c4C)cc3)c3cc(Cl)ccc32)CC1 [Compound 151]
290	CCCC(=O)c1cnn(-c2ccc(NC(=O)c3cn(CC(=O)N4CCN(CCC(=O)OCC)CC4)c4ccc(Cl)cc34)cc2)c1C [Compound 153]
150	CCCC(=O)c1cnn(-c2ccc(NC(=O)c3cn(CC(=O)N4CCN(CC(=O)N(C)C)CC4)c4ccc(Cl)cc34)cc2)c1C [Compound 154]
260	CCCC(=O)c1cnn(-c2ccc(NC(=O)c3cn(CC(=O)N4CCN(CC(=O)OCC)CC4)c4ccc(Cl)cc34)cc2)c1C [Compound 155]
300	CCCC(=O)c1cnn(-c2ccc(NC(=O)c3cn(CC(=O)N4CCN(CCC)CC4)c4ccc(Cl)cc34)cc2)c1C [Compound 156]
180	CCCC(=O)c1cnn(-c2ccc(NC(=O)c3cn(CC(=O)N4CCN(C)CC4)c4cc(F)c(Cl)cc34)cc2)c1C [Compound 157]
340	CCCC(=O)c1cnn(-c2ccc(NC(=O)c3cn(CC(=O)N4CCN(CCOC)CC4)c4cc(F)c(Cl)cc34)cc2)c1C [Compound 158]
410	CCCC(=O)c1cnn(-c2ccc(NC(=O)c3cn(CC(=O)N4CC(C)NC(C)C4)c4ccc(Cl)cc34)cc2)c1C (centres unmarked) [Compound 159]
1380	CCCC(=O)c1cnn(-c2ccc(NC(=O)c3cn(CC(=O)N4CCN(C)CC4)c4ccc(C#N)cc34)cc2)c1C [Compound 160]
370	CCCC(=O)c1cnn(-c2ccc(NC(=O)c3cn(CC(=O)N4CCN(CCOCC)CC4)c4ccc(Cl)cc34)cc2)c1C [Compound 161]
290	CCCC(=O)c1cnn(-c2ccc(NC(=O)c3cn(CC(=O)N4CCN(CC(=O)NC)CC4)c4ccc(Cl)cc34)cc2)c1C [Compound 163]
1010	CCCC(=O)c1cnn(-c2ccc(NC(=O)c3cn(CC(=O)N4CCN(Cc5cccs5)CC4)c4ccc(C)cc34)cc2)c1C [Compound 164]
310	CCCC(=O)c1cnn(-c2ccc(NC(=O)c3cn(CC(=O)N4CCN(Cc5ccc(F)cc5)CC4)c4ccc(Cl)cc34)cc2)c1C [Compound 165]
470	CCCC(=O)c1cnn(-c2ccc(NC(=O)c3cn(CC(=O)N4CCN(Cc5ccc(Cl)cc5)CC4)c4ccc(Cl)cc34)cc2)c1C [Compound 167]
370	CCCC(=O)c1cnn(-c2ccc(NC(=O)c3cn(CC(=O)N4CCN(Cc5ccccc5OC)CC4)c4ccc(Cl)cc34)cc2)c1C [Compound 168]
400	CCCC(=O)c1cnn(-c2ccc(NC(=O)c3cn(CC(=O)N(C)C4CCS(=O)(=O)C4)c4ccc(Cl)cc34)cc2)c1C (centres unmarked) [Compound 169]
570	CCCC(=O)c1cnn(-c2ccc(NC(=O)c3cn(CC(=O)N4CC(O)CC4C(=O)NC4CCC4)c4ccc(Cl)cc34)cc2)c1C (centres unmarked) [Compound 171]
330	CCCC(=O)c1cnn(-c2ccc(NC(=O)c3cn(CC(=O)N4CCn5ccnc5C4)c4ccc(Cl)cc34)cc2)c1C [Compound 172]
170	CCCC(=O)c1cnn(-c2ccc(NC(=O)c3cn(CC(=O)N4CCc5[nH]ncc5C4)c4ccc(Cl)cc34)cc2)c1C [Compound 173]
490	CCCC(=O)c1cnn(-c2ccc(NC(=O)c3cn(CC(=O)N4Cc5cnn(C)c5C4)c4ccc(Cl)cc34)cc2)c1C [Compound 174]
290	CCCC(=O)c1cnn(-c2ccc(NC(=O)c3cn(CC(=O)N4Cc5c[nH]nc5C4)c4ccc(Cl)cc34)cc2)c1C [Compound 175]
390	CCCC(=O)c1cnn(-c2ccc(NC(=O)c3cn(CC(=O)N4CC(O)C4)c4ccc(Cl)cc34)cc2)c1C [Compound 176]
500	CCCC(=O)c1cnn(-c2ccc(NC(=O)c3cn(CC(=O)N(C)C)c4ccc(N(C)C)cc34)cc2)c1C [Compound 178]

IC50 [nM]	Structure (SMILES)
180	CCCC(=O)c1cnn(-c2ccc(NC(=O)c3cn(CC(=O)N4CCN(C(C)(C)CO)CC4)c4ccc(Cl)cc34)cc2)c1C [Compound 181]
270	CCCC(=O)c1cnn(-c2ccc(NC(=O)c3cn(CC(=O)N4CCn5cnnc5C4)c4ccc(Cl)cc34)cc2)c1C [Compound 182]
230	CCCC(=O)c1cnn(-c2ccc(NC(=O)c3cn(CC(=O)N4CCN5C(=O)CCC5C4)c4ccc(Cl)cc34)cc2)c1C (centres unmarked) [Compound 183]
170	CCCC(=O)c1cnn(-c2ccc(NC(=O)c3cn(CC(=O)N4CCN(C)C(=O)C4)c4ccc(Cl)cc34)cc2)c1C [Compound 184]
250	CCCC(=O)c1cnn(-c2ccc(NC(=O)c3cn(CC(=O)N4CCN(C)C(C)(C)C4)c4ccc(Cl)cc34)cc2)c1C [Compound 186]
610	CCCC(=O)c1cnn(-c2ccc(NC(=O)c3cn(CC(=O)N4Cc5cccnc5C4)c4ccc(Cl)cc34)cc2)c1C [Compound 187]
550	CCCC(=O)c1cnn(-c2ccc(NC(=O)c3cn(CC(=O)N4CC[C@@H](C(=O)NC5CC5)C4)c4ccc(Cl)cc34)cc2)c1C [Compound 188]
410	CCCC(=O)c1cnn(-c2ccc(NC(=O)c3cn(CC(=O)N4CCC(F)(F)C4)c4ccc(Cl)cc34)cc2)c1C [Compound 189]
160	CCCC(=O)c1cnn(-c2ccc(NC(=O)c3cn(CC(=O)N4CCN(C5COC5)CC4)c4ccc(Cl)cc34)cc2)c1C [Compound 191]
270	CCCC(=O)c1cnn(-c2ccc(NC(=O)c3cn(CC(=O)N4CC5CCC(C4)N5C)c4ccc(Cl)cc34)cc2)c1C [Compound 192]
230	CCCC(=O)c1cnn(-c2ccc(NC(=O)c3cn(CC(=O)N4CCN(C)C(CCOC)C4)c4ccc(Cl)cc34)cc2)c1C (centres unmarked) [Compound 196]
250	CCCC(=O)c1cnn(-c2ccc(NC(=O)c3cn(CC(=O)N4CCN(CCNC(C)=O)CC4)c4ccc(Cl)cc34)cc2)c1C [Compound 197]
410	CCCC(=O)c1cnn(-c2ccc(NC(=O)c3cn(CC(=O)N4CCN(CC(=O)N5CCCC5)CC4)c4ccc(Cl)cc34)cc2)c1C [Compound 198]
270	CCCC(=O)c1cnn(-c2ccc(NC(=O)c3cn(CC(=O)N4CCN(CC(N)=O)CC4)c4ccc(Cl)cc34)cc2)c1C [Compound 199]
480	CCCC(=O)c1cnn(-c2ccc(NC(=O)c3cn(CC(=O)N(C)CCOC)c4ccc(Cl)cc34)cc2)c1C [Compound 200]
650	CCCC(=O)c1cnn(-c2ccc(NC(=O)c3cn(CC(=O)N4CCN(C5CCC5)CC4)c4ccc(Cl)cc34)cc2)c1C [Compound 201]
360	CCCC(=O)c1cnn(-c2ccc(NC(=O)c3cn(CC(=O)N4CCN(C)CC4)c4ccc(C(F)(F)F)cc34)cc2)c1C [Compound 203]
830	CCCC(=O)c1cnn(-c2ccc(NC(=O)c3cn(CC(=O)N4CCC(OCCOC)C4)c4ccc(Cl)cc34)cc2)c1C (centres unmarked) [Compound 206]
370	CCCC(=O)c1cnn(-c2ccc(NC(=O)c3cn(CC(=O)N4CCC(OCCO)C4)c4ccc(Cl)cc34)cc2)c1C (centres unmarked) [Compound 208]
420	CCCC(=O)c1cnn(-c2ccc(NC(=O)c3cn(CC(=O)N4CCN(CC(O)C(F)(F)F)CC4)c4ccc(Cl)cc34)cc2)c1C (centres unmarked) [Compound 209]
280	CCCC(=O)c1cnn(-c2ccc(NC(=O)c3cn(CC(=O)N4CCN(CCN(C)C(C)=O)CC4)c4ccc(Cl)cc34)cc2)c1C [Compound 211]
660	CCCC(=O)c1cnn(-c2ccc(NC(=O)c3cn(CC(=O)N4CC5CC4CN5C4CCC4)c4ccc(Cl)cc34)cc2)c1C (centres unmarked) [Compound 214]
730	CC(=O)c1cnn(-c2ccc(NC(=O)c3cn(CC(=O)N4CCN(C)CC4)c4ccc(Cl)cc34)cc2)c1C [Compound 216]
600	CCC(=O)c1cnn(-c2ccc(NC(=O)c3cn(CC(=O)N4CCN(C)CC4)c4ccc(Cl)cc34)cc2)c1C [Compound 217]
560	CCOC(=O)c1cnn(-c2ccc(NC(=O)c3cn(CC(=O)N4CCN(C)CC4)c4ccc(Cl)cc34)cc2)c1C [Compound 218]
220	CCCC(=O)c1cnn(-c2ccc(NC(=O)c3cn(CC(=O)N4CCN(C)CC4)c4ccc(Cl)cc34)c(C(N)=O)c2)c1C [Compound 220]

Same assay, conditions: rat platelet-rich plasma, ADP-induced aggregation, area under the curve of absorbance for 6 minutes; read-out: Inhibition of platelet aggregation in vitro (rat blood);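 note: aggregation induced by ADP added as 4 µL of a 250 µM solution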

IC50 [nM]	Structure (SMILES)
540	CCCC(=O)c1cnn(-c2ccc(NC(=O)c3cn(CC(=O)N4CCNCC4)c4ccc(C)cc34)cc2)c1C [Compound 243]
960	CCCC(=O)c1cnn(-c2ccc(NC(=O)c3cn(CC(=O)N4CCCC(N)C4)c4ccc(C)cc34)cc2)c1C (centres unmarked) [Compound 244]
530	CCCC(=O)c1cnn(-c2ccc(NC(=O)c3cn(CC(=O)NC4CCNC4)c4ccc(C)cc34)cc2)c1C (centres unmarked) [Compound 245]
850	CCCC(=O)c1cnn(-c2ccc(NC(=O)c3cn(CC(=O)N4CC5CCNC5C4)c4ccc(C)cc34)cc2)c1C (centres unmarked) [Compound 246]
260	CCCC(=O)c1cnn(-c2ccc(NC(=O)c3cn(CC(=O)N4CC(C)NC(C)C4)c4ccc(C)cc34)cc2)c1C (centres unmarked) [Compound 247]
